# Laboratory results taken from US8067445B2, “N,N-disubstituted aminoalkylbiphenyl antagonists of prostaglandin D2 receptors” (Panmira Pharmaceuticals, LLC, priority 2008, dated 2011).
# Tests used:
# [1] = molecular target: T1, human DP1 receptor (Homo sapiens, UniProt Q13258); assay: DP1 radioligand binding assay ([3H]BWA868C, platelet membranes); conditions: [3H]BWA868C binding, human platelet membranes; read-out: hDP1
# T1 construct: tissue Biological Specialty Corporation; host or cells: human platelet membranes
# T1 sequence (Q13258 1-359): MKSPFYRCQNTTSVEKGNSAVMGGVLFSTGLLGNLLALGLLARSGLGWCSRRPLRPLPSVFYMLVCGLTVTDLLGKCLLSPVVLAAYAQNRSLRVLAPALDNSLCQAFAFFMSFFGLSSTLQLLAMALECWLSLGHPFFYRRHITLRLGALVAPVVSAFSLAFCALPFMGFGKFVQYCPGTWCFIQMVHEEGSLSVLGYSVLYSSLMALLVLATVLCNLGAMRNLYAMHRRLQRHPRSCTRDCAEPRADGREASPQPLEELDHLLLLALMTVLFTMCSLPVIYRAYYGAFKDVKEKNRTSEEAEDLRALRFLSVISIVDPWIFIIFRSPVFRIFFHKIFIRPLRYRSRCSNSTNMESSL
# Method in brief: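 Human platelet membranes (20 μg protein/well) incubated 60 min at room temperature with 2 nM [3H]BWA868C and compound in 50 mM Hepes, 10 mM MnCl2, 1 mM EDTA, pH 7.4, ± 0.2% human serum albumin. Bound radioactivity measured after filtration; nonspecific binding defined with 10 μM BWA868C; IC50 from titration curves.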
# [2] = molecular target: T2, human DP2 receptor (Homo sapiens, UniProt Q9Y5Y4); assay: DP2/CRTH2 radioligand binding assay ([3H]PGD2); conditions: [3H]PGD2 binding, membranes of HEK293 cells expressing human DP2; read-out: hDP2
# T2 construct: expressed in transfected cells
# T2 sequence (Q9Y5Y4 1-395): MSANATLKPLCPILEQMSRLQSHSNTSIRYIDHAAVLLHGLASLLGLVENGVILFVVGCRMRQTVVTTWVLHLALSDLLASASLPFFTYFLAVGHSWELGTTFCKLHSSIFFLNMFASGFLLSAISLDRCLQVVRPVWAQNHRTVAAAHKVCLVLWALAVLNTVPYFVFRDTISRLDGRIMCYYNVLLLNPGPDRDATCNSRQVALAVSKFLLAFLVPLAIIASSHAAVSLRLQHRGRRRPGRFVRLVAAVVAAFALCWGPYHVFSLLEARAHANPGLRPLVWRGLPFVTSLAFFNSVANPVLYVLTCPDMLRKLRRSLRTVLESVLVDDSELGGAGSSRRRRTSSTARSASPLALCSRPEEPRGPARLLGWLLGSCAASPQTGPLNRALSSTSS
# Method in brief: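 Membranes from HEK293 cells stably expressing recombinant human DP2 incubated 60 min at room temperature with 1 nM [3H]PGD2 and compound in pH 7.4 Hepes/MnCl2/EDTA buffer, ± 0.2% human serum albumin. Bound radioactivity measured after filtration; non-specific binding defined with 10 μM PGD2. IC50 from titration curves.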
# [3] = molecular target: T3, recombinant human CRTH2 receptor (Homo sapiens, UniProt Q9Y5Y4); assay: GTPγS binding assay; assay type: biochemical; conditions: +HSA (0.2% human serum albumin), 80 nM PGD2, CHO cell membranes; read-out: hDP2 GTPγS μM (+HSA)
# T3 construct: expressed in transfected cells
# T3 sequence (Q9Y5Y4 1-395): T2 sequence (Q9Y5Y4 1-395)
# Description: The ability of a compound to inhibit binding of GTP to DP2 is assessed via a membrane GTPγS assay. CHO cells stably expressing the recombinant human CRTH2 receptor are resuspended in 10 mM Hepes, 7.4 containing 1 mM DTT, lysed and centrifuged at 75,000×g to pellet the membranes. The membranes are resuspended in 10 mM Hepes, 7.4 containing 1 mM DTT and 10% glycerol. […] The reactions are terminated by rapid filtration through Whatman GF/B glass fibre filter plates. The filter plates are washed 3 times with 1 ml cold Assay Buffer and dried. Scintillant is then added to the plates and the radioactivity retained on the filters is determined on a Packard TopCount (Perkin Elmer). Specific binding is determined as total radioactive binding minus non-specific binding in the absence of the ligand (80 nM PGD2). IC50s were determined using Graphpad prism analysis of drug titration curves.
SMILES,IC50 [1] [nM],IC50 [2] [nM],IC50 [3] [µM]
"COc1ccc(CC(=O)O)cc1-c1ccc(C(F)(F)F)cc1CN(C(C)=O)c1ccccc1 [Compound 1-18, {2′-[(Acetyl-phenyl-amino)-methyl]-6-methoxy-4′-trifluoromethyl-biphenyl-3-yl}-acetic acid]",1000 to 30000,300 to 1000,0.3 to 1
"CCN(Cc1cc(C(F)(F)F)ccc1-c1cc([C@@H](C)C(=O)O)ccc1OC)C(=O)C1CC1 [Compound 1-224, (R)-2-{2′-[(Cyclopropanecarbonyl-ethyl-amino)-methyl]-6-methoxy-4′-trifluoromethyl-biphenyl-3-yl}-propionic acid]",,< 300,< 0.3
"CCOc1ccc(-c2ccc(-c3cc(CC(=O)O)ccc3OC)c(CN(CC)C(=O)NCc3ccccc3)c2)cn1 [Compound 1-228, [2′-(3-Benzyl-1-ethyl-ureidomethyl)-4′-(6-ethoxy-pyridin-3-yl)-6-methoxy-biphenyl-3-yl]-acetic acid]",,< 300,< 0.3
"CCN(Cc1cc(C(F)(F)F)ccc1-c1cc(CC(=O)O)ccc1OC)S(=O)(=O)c1ccc(Cl)cc1 [Compound 1-100, (2′-{[(4-Chloro-benzenesulfonyl)-ethyl-amino]-methyl}-6-methoxy-4′-trifluoromethyl-biphenyl-3-yl)-acetic acid]",1000 to 30000,< 300,1 to 30
"COc1ccc(CC(=O)O)cc1-c1ccc(C(F)(F)F)cc1CN(CCN(C)C)C(C)=O [Compound 1-7, (2′-{[Acetyl-(2-dimethylamino-ethyl)-amino]-methyl}-6-methoxy-4′-trifluoromethyl-biphenyl-3-yl)-acetic acid]",1000 to 30000,300 to 1000,0.3 to 1
"CCN(Cc1cc(C(F)(F)F)ccc1-c1cc(Cl)cc(CC(=O)O)c1)C(=O)OCc1ccccc1 [Compound 1-108, {2′-[(Benzyloxycarbonyl-ethyl-amino)-methyl]-5-chloro-4′-trifluoromethyl-biphenyl-3-yl}-acetic acid]",1000 to 30000,< 300,< 0.3
"CCN(Cc1cc(C(F)(F)F)ccc1-c1cc(CC(=O)O)ccc1OCc1ccccc1)C(=O)OCc1ccccc1 [Compound 1-128, {6-Benzyloxy-2′-[(benzyloxycarbonyl-ethyl-amino)-methyl]-4′-trifluoromethyl-biphenyl-3-yl}-acetic acid]",300 to 1000,< 300,< 0.3
"CCN(Cc1cc(C(F)(F)F)ccc1-c1cc(CC(=O)O)ccc1OC)/C(=N/C#N)NCC(C)(C)C [Compound 1-113, {2′-[N′-Cyano-N″-(2,2-dimethyl-propyl)-N-ethyl-guanidinomethyl]-6-methoxy-4′-trifluoromethyl-biphenyl-3-yl}-acetic acid]",1000 to 30000,< 300,< 0.3
"CCN(Cc1cc(C(F)(F)F)ccc1-c1cc(CC(=O)O)ccc1OC)C(=O)CSc1ccccc1 [Compound 1-117, (2′-{[Ethyl-(2-phenylsulfanyl-acetyl)-amino]-methyl}-6-methoxy-4′-trifluoromethyl-biphenyl-3-yl)-acetic acid]",1000 to 30000,< 300,< 0.3
"CCN(Cc1cc(C(F)(F)F)ccc1-c1cc(CC(=O)O)ccc1OC)C(=O)CS(=O)(=O)c1ccccc1 [Compound 1-120, (2′-{[(2-Benzenesulfonyl-acetyl)-ethyl-amino]-methyl}-6-methoxy-4′-trifluoromethyl-biphenyl-3-yl)-acetic acid]",1000 to 30000,< 300,< 0.3
"COc1ccc(CC(=O)O)cc1-c1ccc(C(F)(F)F)cc1CN(CC(N)=O)C(C)=O [Compound 1-9, {2′-[(Acetyl-carbamoylmethyl-amino)-methyl]-6-methoxy-4′-trifluoromethyl-biphenyl-3-yl}-acetic acid]",1000 to 30000,300 to 1000,0.3 to 1
"COc1ccc(CC(=O)O)cc1-c1ccc(C(F)(F)F)cc1CN(CCO)C(C)=O [Compound 1-5, (2′-{[Acetyl-(2-hydroxy-ethyl)-amino]-methyl}-6-methoxy-4′-trifluoromethyl-biphenyl-3-yl)-acetic acid]",1000 to 30000,< 300,0.3 to 1
"COC(=O)N(Cc1ccccc1)Cc1cc(C(F)(F)F)ccc1-c1cc(CC(=O)O)ccc1OC [Compound 1-24, {2′-[(Benzyl-methoxycarbonyl-amino)-methyl]-6-methoxy-4′-trifluoromethyl-biphenyl-3-yl}-acetic acid]",1000 to 30000,< 300,< 0.3
"COc1ccc(CC(=O)O)cc1-c1ccc(C(F)(F)F)cc1CN(C(C)=O)[C@@H]1CCc2ccccc21 [Compound 1-13, {2′-[((R)-Acetyl-indan-1-yl-amino)-methyl]-6-methoxy-4′-trifluoromethyl-biphenyl-3-yl}-acetic acid]",< 300,300 to 1000,0.3 to 1
"CCN(Cc1cccc(OC)c1-c1cccc(CC(=O)O)c1)C(=O)OCc1cc(F)cc(F)c1 [Compound 1-123, (2′-{[(3,5-Difluoro-benzyloxycarbonyl)-ethyl-amino]-methyl}-6′-methoxy-biphenyl-3-yl)-acetic acid]",300 to 1000,< 300,0.3 to 1
"COc1ccc(CC(=O)O)cc1-c1ccc(C(F)(F)F)cc1CN(C(C)=O)C1Cc2ccccc2C1 [Compound 1-17, {2′-[(Acetyl-indan-2-yl-amino)-methyl]-6-methoxy-4′-trifluoromethyl-biphenyl-3-yl}-acetic acid]",1000 to 30000,< 300,< 0.3
"CCN(Cc1cc(C(F)(F)F)ccc1-c1cc(C(C)C(=O)O)ccc1OC)C(=O)NCc1ccccc1 (stereo not drawn) [Compound 1-222, 2-[2′-(3-Benzyl-1-ethyl-ureidomethyl)-6-methoxy-4′-trifluoromethyl-biphenyl-3-yl]-propionic acid]",,< 300,< 0.3
"CCN(Cc1cc(-c2cnn(C)c2)ccc1-c1cc(CC(=O)O)ccc1OC)C(=O)NCc1ccccc1 [Compound 1-234, [2′-(3-Benzyl-1-ethyl-ureidomethyl)-6-methoxy-4′-(1-methyl-1H-pyrazol-4-yl)-biphenyl-3-yl]-acetic acid]",,< 300,< 0.3
"CCN(Cc1cc(C(F)(F)F)ccc1-c1cc(CC(=O)O)ccc1OC)/C(=N/C#N)NCc1ccccc1 [Compound 1-111, [2′-(N′-Benzyl-N″-cyano-N-ethyl-guanidinomethyl)-6-methoxy-4′-trifluoromethyl-biphenyl-3-yl]-acetic acid]",1000 to 30000,< 300,< 0.3
CCN(Cc1cc(C(F)(F)F)ccc1-c1cc(CC(=O)O)ccc1OCC1CC1)C(=O)OCc1ccccc1 [Compound 1-130],1000 to 30000,< 300,< 0.3
"CCN(Cc1cc(C(F)(F)F)ccc1-c1cc(CC(=O)O)ccc1OC)C(=O)Nc1ccccc1 [Compound 1-121, [2′-(1-Ethyl-3-phenyl-ureidomethyl)-6-methoxy-4′-trifluoromethyl-biphenyl-3-yl]-acetic acid]",1000 to 30000,< 300,< 0.3
"CCN(Cc1cc(-c2cnn(C)c2)ccc1-c1cc(CC(=O)O)ccc1OC)C(=O)C1CC1 [Compound 1-233, [2′-[(Cyclopropanecarbonyl-ethyl-amino)-methyl]-6-methoxy-4′-(1-methyl-1H-pyrazol-4-yl)-biphenyl-3-yl]-acetic acid]",,< 300,< 0.3
"CCN(Cc1cc(C(F)(F)F)ccc1-c1cc([C@@H](C)C(=O)O)cc(C(F)(F)F)c1)C(=O)C1CC1 [Compound 1-237, (R)-2-{2′-[(Cyclopropanecarbonyl-ethyl-amino)-methyl]-5,4′-bis-trifluoromethyl-biphenyl-3-yl}-propionic acid]",,< 300,< 0.3
